Test results reported in patent US4185096A, “Novel derivatives of pepstatin, their preparation and compositions containing them” (Agence Nationale de Valorisation de la Recherche (ANVAR), priority 1977, dated 1980).
Non-standard residues stand in square brackets, D forms with d. Residues, ends and D or L forms follow the SMILES beside them. *: point of attachment. Sta = CC(C)C[C@H](N)[C@@H](O)CC(=O)O; Isovaleryl = CC(C)CC(=O)*

Key:
hypertensive rats = test: blood pressure in rats with renal hypertension (aortic ligature between the renal arteries); format: in vivo, rat; settings: for decrease of blood pressure: intravenous 350 nmoles, thirteen Saralasin-responder rats, pooled value (2 rats methyl ester, 11 rats arginine salt)
Description: The experimental model of renal hypertension developped in rats by ROJO-ORTEGA and GENEST [Can. J.Phys. Pharm. 46 883-885 (1968)] was used.
A complete ligature of the aorta between the renal arteries was performed in twenty male Sprague-Dawley rats, weighing 300 g. They were investigated between 5 and 10 days after surgery. The blood pressure was measured in the conscious unrestrained rats, through a carotid cannula inserted 24 hours before measurements were made.
The maximal decrease in blood pressure induced by an injection of "Saralasin" was compared [Sar 1, Ala-8 Angiotensin II] in the same animals, to the maximum fall in blood pressure induced by the soluble derivatives of pepstatin according to the invention.
In these thirteen rats, the average blood pressure decrease was 44.5±8.5 mmHg. The intravenous injection of 350 nmoles of pepstatinyl-Arginine-O-Methyl Ester (2 rats), or the Arginine salt of Pepstatinyl (11 rats) decreased blood pressure by 48.3±8.2 mmHg. The maximal fall in blood pressure was obtained 5 minutes after Saralasin, and 6 minutes after soluble pepstatin. Blood pressure returned to the control level 10 minutes after the injection of both inhibitors.

hog renin = test: in vitro inhibition of hog renin on synthetic N-acetylated tetradecapeptide substrate, fluorimetry, Dixon plot; format: biochemical; settings: 10 milli-Goldblatt units hog renin, pH 6, one hour, 37° C., Dixon representation; read-out: inhibition constant
Description: 10 milli-Goldblatt units of hog renin, from the same source as above, were incubated at pH 6 for one hour at 37° C. in the presence of a synthetic substrate constituted by a N-acetylated renin tetradecapeptide [GALEN et al. Biochem. Biophys. Acta, 523, 485-493 (1978)]. The tetrapeptide quantity produced per hour of incubation was measured by fluorimetry. Three different concentrations of N-acetylated tetradecapeptide were used, that is to say 2.3, 4.6 and 9.3 nmoles with increasing amounts of pepstatin or methyl ester of pepstatin-[…].25, 0.50 and 0.75 10^-6 mole/l).

Ki (hog renin) [nM] | SMILES | rats with a blood pressure fall of 10 mmHg and more (hypertensive rats; among 20 hypertensive rats, intravenous 140 nmoles) [rats] | time of maximal fall in blood pressure after injection (hypertensive rats; intravenous 140 nmoles) [min] | time of return of blood pressure to the control level after injection (hypertensive rats; intravenous 140 nmoles) [min] | average blood pressure decrease (hypertensive rats; intravenous 140 nmoles, thirteen responder rats) [mmHg] | decrease of blood pressure (hypertensive rats) [mmHg]
– | CNCC(=O)N[C@@H](CCCN=C(N)N)C(=O)N[C@H](C(=O)N[C@@H](Cc1ccc(O)cc1)C(=O)N[C@H](C(=O)N[C@@H](Cc1cnc[nH]1)C(=O)N1CCC[C@H]1C(=O)N[C@@H](C)C(=O)O)C(C)C)C(C)C [Saralasin, Sar 1, Ala-8 Angiotensin II] | 13 | 5 | 10 | 44.5±8.5 | –
315 | COC(=O)[C@H](CCCNC(=N)N)NC(=O)C[C@H](O)[C@H](CC(C)C)NC(=O)[C@H](C)NC(=O)C[C@H](O)[C@H](CC(C)C)NC(=O)[C@@H](NC(=O)[C@@H](NC(=O)CC(C)C)C(C)C)C(C)C [methyl ester of pepstatin-arginine] (Isovaleryl-VV[Sta]A[Sta]R-OMe) | – | – | – | – | 48.3±8.2
– | CC(C)CC(=O)N[C@H](C(=O)N[C@H](C(=O)N[C@@H](CC(C)C)[C@@H](O)CC(=O)N[C@@H](C)C(=O)N[C@@H](CC(C)C)[C@@H](O)CC(=O)N[C@@H](CCCNC(=N)N)C(=O)O)C(C)C)C(C)C [pepstatin-arginine] (Isovaleryl-VV[Sta]A[Sta]R-OH) | – | – | – | – | 48.3±8.2
